According to PMC5390467, “Novel lead structures with both Plasmodium falciparum gametocytocidal and asexual blood stage activity identified from high throughput compound screening” (Malaria Journal, 2017):

Columns and labels:
[1] = tested on: P. falciparum NF54 gametocytes; test: gametocyte viability assay (AlamarBlue); format: cell-based, Plasmodium falciparum; settings: for IC50: P. falciparum NF54 stage III-V gametocytes, 72 h, AlamarBlue, mean ± SD, n = 3; for Asexual/Gametocyte: ratio of asexual IC50 to gametocyte IC50; for ratio of IC50s, lower IC50 in gametocyte viability assay than in asexual parasite growth assay: asexual versus gametocyte
Procedure: (§1) Asexual parasites of P. falciparum strain NF54 were cultured as described previously. Briefly, parasites were maintained in RPMI 1640 medium containing 10% positive human serum + erythrocytes (5% haematocrit), 2.5% sodium bicarbonate and 11 µg/mL gentamicin at 37 °C with 5% CO2, 5% O2 and 90% N2. Gametocyte cultures were set up at 0.1% parasitaemia and on days 9–10 treated with 50 mM N-acetylglucosamine (NAG) to block further asexual growth. Stage III–V gametocytes were isolated by Percoll density gradient centrifugation on day 12 and returned to culture for 24 h before being used in the assay. At the time of the assay over 73% of the gametocytes were stage IV or V (Additional file 1). HepG2 cells (ATCC, cat. no. 77400) were cultured in 175-cm^2 tissue culture flasks with 30 ml growth medium at 37 °C in a 5% CO2 and 5% O2 humidified atmosphere. Growth medium was made with Dulbecco’s Modified Eagle Medium with 10% fetal bovine serum (FBS). Growth medium was replaced every other day and cells were passaged at 75% confluence.
Compounds from the Sytravon library (a retired Pharma screening collection that contains a diversity of novel small molecules, with an emphasis on medicinal chemistry-tractable scaffolds) were obtained as powder samples and dissolved in DMSO as […] stock solutions. Compound screening experiments were performed as previously described. In the primary screen, two concentrations for each compound were tested. No technical and biological replicates were involved. In the follow-up confirmation studies, three biological replicates were tested for each compound in both parasite assays. The positive control was 46 µM of Torin 2 and negative control was DMSO. Briefly, 2.5 μL/well incomplete medium was dispensed into each well of 1536-well plates using the Multidrop Combi followed by 23 nL compound transferring using the NX-TR Pintool (WAKO Scientific Solutions, San Diego, CA). Then, 2.5 μL/well of gametocytes was dispensed with a seeding density of 20,000 cells/well using the Multidrop Combi. The assay plates were incubated for 72 h at 37 °C with 5% CO2. After addition of 5 μL/well of 2X AlamarBlue dye (Life Technologies, cat. no. DAL1100), the plates were incubated for 24 h at 37 °C with 5% CO2 and then were read in a fluorescence detection mode (Ex = 525 nm, Em = 598 nm) on a ViewLux plate reader (PerkinElmer).

468 human kinases = test: human kinase profiling (Kinome scan, DiscoverX), whole panel; format: binding
[2] = tested on: P. falciparum NF54 asexual parasites; test: asexual parasite growth inhibition assay (SYBR Green); format: cell-based, Plasmodium falciparum; settings: 72 h, mean ± SD, n = 3
Procedure: as §1
Drug activity on asexual stage parasites was tested using a SYBR Green assay as described previously. Briefly, 2.5 μL/well complete culture medium was dispensed into each well of 1536-well plates using the Multidrop Combi followed by 23 nL compound transferring using the NX-TR Pintool. Parasites were diluted to 0.5% parasitaemia in complete culture medium with 2% haematocrit and drugs diluted in DMSO (≤0.5%). The pre-diluted parasites were dispensed into a 1536-well plate (2.5 μL/well). After 72 h incubation under the standard culture conditions, 5 μL/well of lysis buffer containing SYBR Green I was added to the parasite culture and incubated for 30 min at room temperature. The fluorescence of each well was measured in a fluorescence detection mode (Ex = 490 nm, Em = 520 nm) using a ViewLux plate reader (PerkinElmer).

HepG2 cells = test: HepG2 cytotoxicity assay (AlamarBlue); format: cell-based, human; settings: for cytotoxicity at 46 µM: Homo sapiens, read-out: HepG2, IC50 (dash = less than 25% cytotoxicity); for cytotoxicity at 46 µM / IC50 / HepG2, IC50 (dash = less than 25% cytotoxicity): HepG2 cells, 72 h, AlamarBlue; for cytotoxicity at 46 µM / HepG2, IC50 (dash = less than 25% cytotoxicity): up to 46 µM; for IC50 / maximum response, HepG2 cytotoxicity: titration 0.001 to 46 µM; for IC50: mean ± SD, n = 3
Procedure: as §1
Drug activity on HepG2 was tested using an AlamarBlue assay as previously described. Briefly, 5 μL/well of HepG2 cells were dispensed with a seeding density of 1000 cells/well using the Multidrop Combi. 23 nL compound was transferred using the NX-TR Pintool. After 72 h incubation under the standard culture condition, 5 μL/well of 2X AlamarBlue dye was added to the cells, the plates were incubated for 2 h at 37 °C with 5% CO2 and then were read in a fluorescence detection mode (Ex = 525 nm, Em = 598 nm) on a ViewLux plate reader.

SMILES | IC50 ([1]; Plasmodium falciparum) [µM] | IC50 ([2]; Plasmodium falciparum) [µM] | IC50 [1] [µM] | IC50 [2] [µM] | Asexual/Gametocyte [1] | cytotoxicity at 46 µM (HepG2 cells) [%] | HepG2, IC50 (dash = less than 25% cytotoxicity) (HepG2 cells) | also measured
CC(C)(C)OC(=O)N1CCC(c2c(C(=O)NCCN3CCOCC3)cnn2-c2ccccc2)CC1 [NCGC00127015] | – | – | 20.3 ± 0.31 | 3.05 ± 0.27 | 0.15 | – | – | IC50 (HepG2 cells): 38.4 µM; maximum response, HepG2 cytotoxicity (HepG2 cells): 87.2%
COc1ccc(Nc2cc(C)nc(-n3nc(C)cc3C)n2)cc1Cl [NCGC00134126] | 1.19 ± 0.05 | 4.78 ± 0.43 | – | – | 4.02 | < 25 | – | ratio of IC50s, lower IC50 in gametocyte viability assay than in asexual parasite growth assay [1]: ~ fourfold
Cc1cc(Nc2ccc(C(C)C)cc2)nc(-n2nc(C)cc2C)n1 [NCGC00134128] | 1.18 ± 0.17 | 1.93 ± 0.13 | – | – | 1.64 | < 25 | – | –
Cc1cccc(Nc2cc(C)nc(-n3nc(C)cc3C)n2)c1 [NCGC00134130] | 1.42 ± 0.24 | 3.26 ± 0.5 | – | – | 2.30 | < 25 | – | –
CCCCc1ccc(Nc2cc(C)nc(-n3nc(C)cc3C)n2)cc1 [NCGC00134132] | 1.29 ± 0.32 | 2.41 ± 0.32 | – | – | 1.87 | < 25 | – | –
Cc1cc(Nc2ccc(Cl)cc2C)nc(-n2nc(C)cc2C)n1 [NCGC00134136] | – | – | 2.57 ± 0.48 | 4.12 ± 0.1 | 1.60 | – | – (Indicates compounds with less than 25% cytotoxicity at up to 46 µM) | –
Cc1ccc(Nc2cc(C)nc(-n3nc(C)cc3C)n2)cc1 [NCGC00134154] | 1.19 ± 0.34 | 2.83 ± 0.31 | – | – | 2.38 | < 25 | – | –
COc1ccccc1Cn1c(CNS(=O)(=O)c2cccc([N+](=O)[O-])c2)nc2cccnc21 [NCGC00134795] | – | – | 4.25 ± 0.64 | 0.96 ± 0.3 | 0.23 | – | – (Indicates compounds with less than 25% cytotoxicity at up to 46 µM) | –
COc1ccc(NC(=O)c2ccc3c(c2)N(Cc2cccc(Cl)c2)C(=O)c2ccccc2[S+]3[O-])cc1Cl (stereo not shown) [NCGC00140326] | – | – | ~60 | 13.8 ± 0.82 | 0.23 | – | – (Indicates compounds with less than 25% cytotoxicity at up to 46 µM) | –
Cc1ccc(C)c(Oc2c(C(F)(F)F)oc3c(CN4CCN(C)CC4)c(O)ccc3c2=O)c1 [NCGC00141020] | – | – | 4.86 ± 0.03 | 1.07 ± 0.37 | 0.22 | – | – (Indicates compounds with less than 25% cytotoxicity at up to 46 µM) | –

Now from value to compound, other results behind:

IC50 ([1]; Plasmodium falciparum) [µM] | IC50 ([2]; Plasmodium falciparum) [µM] | IC50 [1] [µM] | IC50 [2] [µM] | SMILES | Asexual/Gametocyte [1] | cytotoxicity at 46 µM (HepG2 cells) [%] | HepG2, IC50 (dash = less than 25% cytotoxicity) (HepG2 cells) | also measured
0.62 ± 0.04 | 1.16 ± 0.57 | – | – | CCOCc1cc(CN2CCN(c3ccccc3OC)CC2)c(O)c2ncccc12 [NCGC00114940] | 1.87 | < 25 | – | number of human kinases interacting (Interactions Mapped, 468 Assays Tested) (468 human kinases; 10 μM): 0; S-Score(35) (468 human kinases; 10 µM, 468 assays): 0; binding to human kinases, in words (468 human kinases; 10 µM, 468 human kinases): did not affect the activity of any
– | – | 11.9 ± 2.05 | 3.44 ± 0.24 | CC(C)(C)OC(=O)N1CCC(c2c(C(=O)NCCN3CCC(Cc4ccccc4)CC3)cnn2-c2ccccc2)CC1 [NCGC00127017] | 0.29 | – | – | IC50 (HepG2 cells): 25.3 µM; maximum response, HepG2 cytotoxicity (HepG2 cells): 87.6%
1.55 ± 0.11 | 5.96 ± 0.7 | – | – | Cc1cc(Nc2ccc(F)cc2)nc(-n2nc(C)cc2C)n1 [NCGC00134124] | 3.85 | < 25 | – | ratio of IC50s, lower IC50 in gametocyte viability assay than in asexual parasite growth assay [1]: ~ fourfold
– | – | 2.1 ± 0.73 | 3.53 ± 0.27 | Cc1cc(Nc2cc(F)ccc2C)nc(-n2nc(C)cc2C)n1 [NCGC00134156] | 1.68 | – | – (Indicates compounds with less than 25% cytotoxicity at up to 46 µM) | –
– | – | 2.08 ± 0.18 | 4.7 ± 0.52 | Cc1cc(Nc2ccc(F)cc2F)nc(-n2nc(C)cc2C)n1 [NCGC00134158] | 2.26 | – | – (Indicates compounds with less than 25% cytotoxicity at up to 46 µM) | –
